# Reference: patent publication US11413348B2, “Low molecular weight cationic lipids for oligonucleotide delivery” (SIRNA THERAPEUTICS, INC., priority 2010, dated 2022)
# System: mRNA transcript for the firefly (Photinus pyralis) luciferase gene
# Experiment: Mouse in vivo evaluation of efficacy (luciferase siRNA LNPs, liver luminescence)
# Conditions: Luc siRNA RDV, tail vein, 48 hours post dose, FIG. 1
# Procedure: LNPs utilizing Compounds 1-44, in the nominal compositions described immediately above, were evaluated for in vivo efficacy. The siRNA targets the mRNA transcript for the firefly (Photinus pyralis) luciferase gene (Accession #M15077). […] The in vivo luciferase model employs a transgenic mouse in which the firefly luciferase coding sequence is present in all cells. ROSA26-LoxP-Stop-LoxP-Luc (LSL-Luc) transgenic mice licensed from the Dana Farber Cancer Institute are induced to express the Luciferase gene by first removing the LSL sequence with a recombinant Ad-Cre virus (Vector Biolabs). Due to the organo-tropic nature of the virus, expression is limited to the liver when delivered via tail vein injection. Luciferase expression levels in liver are quantitated by measuring light output, using an IVIS imager (Xenogen) following administration of the luciferin substrate (Caliper Life Sciences). Pre-dose luminescence levels are measured prior to administration of the RDVs. Luciferin in PBS (15 mg/mL) is intraperitoneally (IP) injected in a volume of 150 μL. After a four minute incubation period mice are anesthetized with isoflurane and placed in the IVIS imager. The RDVs (containing siRNA) in PBS vehicle were tail vein injected in a volume of 0.2 mL. […] In vivo efficacy results are expressed as % inhibition of luminescence relative to pre-dose luminescence levels. […]
row,SMILES,efficacy (% inhibition of luminescence) compared with RDV containing octyl-CLinDMA (OCD)
1,"CCCCC/C=C\C/C=C\CCCCCCCCCC(CCCCCCCCC)N(C)C (centres unmarked) [Compound 1, (20Z,23Z)—N,N-dimethylnonacosa-20,23-dien-10-amine]",Greater efficacy

# Biological target: T1, ApoE (Macaca mulatta, UniProt Q28502)
# T1 construct: from tissue; host or cells: rhesus serum
# T1 sequence (Q28502 19-295): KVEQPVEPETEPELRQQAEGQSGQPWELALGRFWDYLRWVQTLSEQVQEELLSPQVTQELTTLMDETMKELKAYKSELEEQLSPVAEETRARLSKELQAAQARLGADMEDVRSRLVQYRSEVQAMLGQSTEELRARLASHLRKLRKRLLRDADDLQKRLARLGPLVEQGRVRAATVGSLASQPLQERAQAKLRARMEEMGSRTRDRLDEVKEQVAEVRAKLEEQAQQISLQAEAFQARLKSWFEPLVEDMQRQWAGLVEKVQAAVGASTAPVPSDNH
# Experiment: In vitro ApoE binding assay (anti-PEG capture, ApoE ELISA, stem-loop RT-PCR)
# Conditions: LNP 4 ug/mL in 90% rhesus serum, 37° C., 20 minutes; estimate of 500 siRNA per LNP
# Procedure: LNPs are incubated at 37° C. in 90% rhesus serum at a final LNP concentration of 4 ug/mL. Incubation is for 20 minutes with orbital rotation. After incubation, the samples are diluted 1:20 in PBS and 100 uL of each diluted sample is aliquoted to wells of an anti-PEG antibody coated 96-well plate (Life Diagnostics Cat. No. P-0001PL. After incubation at room temperature for 1 hour, the plate is washed 5× with 300 uL PBS. After washing, 50 uL of 0.2% Triton X-100 is added to each well and the plate incubated at 37° C. for 10 minutes, followed by shaking on a plate shaker for 1 minute at 750 rpm. Samples are frozen prior to performing the ApoE ELISA and stem loop PCR analysis of samples.
# An ApoE ELISA assay is performed to quantitate ApoE bound to the LNPs after incubation in rhesus serum. Anti-ApoE antibody (Milipore, Cat No. AB947) is diluted 1:1000 in PBS and 100 uL of diluted antibody is added to each well of a polystyrene high binding plate. The plate with antibody is incubated overnight at 4° C., after which the plate is washed 2× with 200 uL of PBS. Next, 200 uL of buffer containing 1% BSA and 0.05% Tween-20 in PBS (Incubation Buffer) is added to each well followed by incubation at room temperature for 1 hour. Plates are washed 5× with PBS containing 0.05% Tween-20. Frozen Triton lysis test samples are thawed and diluted 1:6 with incubation buffer and 100 uL of test sample is aliquoted to wells of the ApoE antibody plate. Incubation is for 1 hour at room temperature followed by a 5× wash with PBS containing 0.05% Tween-20. After washing, 100 uL of biotinylated anti-ApoE antibody (Mabtech, Cat. ANo. E887-biotin), diluted 1:500 in incubation buffer, is added to each well and incubated for 1 hour at room temperature, followed by a 5× wash with 0.05% Tween-20 in PBS. 100 uL per well, of Streptavidin-HPR (Thermo, Cat. No. TS-125-HR), is then added and incubated for 1 hour at room temperature. After washing 5× with 0.05% Tween-20 in PBS, 100 uL of TMB Substrate (Thermo, Cat. No. 34028) is added to each well, followed by incubation at room temperature for 20 minutes in the dark. The calorimetric reaction is slopped with 100 uL of TMB Stop Solution (KPL, Cat. No. 50-85-04) and absorbance at 450 nm is determined. An ApoE standard curve is prepared by diluting rhesus Recombinant ApoE in incubation buffer with 0.03% Triton X-100 with concentrations ranging from 100 ng/mL to 0.78 ng/mL. ApoE standards are evaluated in the ELISA in parallel to the test samples. A rhesus serum only (no LNP) control is utilized to obtain a background subtraction for non-LNP dependent ApoE signal in the ELISA.
# To normalize to the ApoE bound to the amount of LNP bound to the anti-PEG antibody plate, the amount of siRNA retained in the anti-PEG antibody well is quantitated by stem-loop PCR and related to the number of siRNAs encapsulated per LNP, to give an approximate measure of total LNP particles bound per well.
# The standard curve is prepared using the molecular weight of the siRNA (13693 g/mol for ApoB 17063) to calculate the copy number. The high standard should contain 10^11 copies per 3 μl. A 10-fold serial dilution is performed across a row of an assay plate until the lowest standard contains 10^2 copies per 3 μl. Dilute 0.2% Triton X-100 1:80 in water and pipette 20 uL of the diluted Triton X-100 into 10 wells of a 96 well plate. 30 uL of the serial diluted standard curve and mix are added to each well of the plate. 10 uL of the spiked standard curve is used in the reverse transcription reaction.
# Triton lysates from the PEG antibody plate capture are diluted 1 to 2000 in nuclease free water. 10 uL of ‘RT-Primer Mix’ (Applied Biosystem's TaqMan MicroRNA Reverse Transcription Kit Cat. No. 4366596) is added to each well of a 96-well Micro-Amp QPCR plate (ABI Cat #N801-0560).
# […] of each test sample (diluted 1 to 2000) or spiked standard curve (above) are aliquoted into the 96-well plate. […]
row,ApoE Molecules/LNP [Molecules/LNP],SMILES
1,4.9,"CCCCC/C=C\C/C=C\CCCCCCCC(CCCCCCCCC)N(C)C (centres unmarked) [Compound 8, (18Z,21Z)—N,N-dimethylheptacosa-18,21-dien-10-amine]"
2,3.3,"CCCCC/C=C\C/C=C\CCCCCCCCCCCC(CCCCCCCC)N(C)C (centres unmarked) [Compound 16, (21Z,24Z)—N,N-dimethyltriaconta-21,24-dien-9-amine]"
3,1.2,"CCCCCCCCCCC/C=C\CCCCC(CCCCCCCCC)N(C)C (centres unmarked) [Compound 24, (15Z)—N,N-dimethylheptacos-15-en-10-amine]"
4,13.7,"CCCCCCCCCCCCCC/C=C\CCCC(CCCCCCCCC)N(C)C (centres unmarked) [Compound 25, (14Z)—N,N-dimethylnonacos-14-en-10-amine]"
5,4.7,"CCCCCCCC/C=C\CCCCCCCCCC(CCCCCCCCC)N(C)C (centres unmarked) [Compound 28, (20Z)—N,N-dimethylnonacos-20-en-10-amine]"
6,38,"CCCCCCCC/C=C\CCCCCCCCCCCC(CCCCCCCCC)N(C)C (centres unmarked) [Compound 29, (22Z)—N,N-dimethylhentriacont-22-en-10-amine]"
7,2.3,"CCCCCCCCCC(CCCCCCCCC[C@H]1C[C@H]1CCCCCC)N(C)C (stereo partly drawn) [Compound 34, 1-[(1S,2R)-2-hexylcyclopropyl]-N,N-dimethylnonadecan-10-amine]"
8,32.5,"CCCCC/C=C\C/C=C\CCCCCCCCC1(CCCCCCCC/C=C\C/C=C\CCCCC)OCC(CCN(C)C)O1 (centres unmarked) [Compound 45, DLinKC2DMA, reference compound]"

# Biological target: T2, serum ApoE (Macaca mulatta, UniProt Q28502)
# T2 construct: from tissue; host or cells: rhesus monkey serum
# T2 sequence (Q28502 19-295): as above
# Experiment: Heparin Sepharose HI-TRAP binding assay
# Design: species or system rhesus monkey
# Conditions: HI-TRAP binding upon rhesus serum incubation, 2×DPBS conditions
# Procedure: Lipid nanoparticles (LNP) with neutral surface charge are not retained after injection onto heparin sepharose with 1× Dulbecco's phosphate buffered saline (DPBS) as the running buffer but elute in the column void volume. […] Lipid nanoparticles with surface bound ApoE bind to heparin sepharose with high affinity and are eluted only at high salt (1M NaCl).
# Lipid nanoparticles were incubated at 37° C. for 20 min at a final siRNA concentration of 50 μg/mL with various concentrations of either purified or recombinant human apolipoprotein E or 0.1-50% rat/mouse/rhesus monkey/human serum in 1× Dulbccco's phosphate buffered saline (DPBS). After incubation with ApoE or serum LNP samples were diluted 10-fold using 1×DPBS and analyzed by heparin sepharose chromatography. Peak area of retained LNP (after subtraction of appropriate blank signals) is compared to total peak area of LNP control without ApoE and/or serum incubation to determine the percentage of the LNP which undergoes shift to high affinity heparin interaction after incubation with ApoE/serum.
# A heparin sepharose HI-TRAP™ chromatography column (GE Healthcare; 1 mL bed volume) is equilibrated with either 1× or 2× Dulbecco's PBS; the higher 2× salt concentration is used for LNPs with higher intrinsic retention on heparin sepharose (presumably due to higher positive surface charge). • Mobile Phase A: 1× or 2×DPBS • Mobile Phase B: 1M NaCl in 10 mM sodium phosphate buffer, pH 7.0 • 100% A delivered isocratically for 10 min followed by step gradient to 100% B; hold for additional 10 min; step gradient back to 100% A and reequilibrate for additional 10 min prior to injection of next sample • Flow rate: 1 mL/min • Sample injection volume: 50 μL. • Detection: UV @260 nm HI-TRAP™ Binding Results Upon Rhesus Serum Incubation (2×DPBS Conditions)
row,% Bound [%],SMILES
1,58,"CCCCC/C=C\C/C=C\CCCCCCCCC1(CCCCCCCC/C=C\C/C=C\CCCCC)OCC(CCN(C)C)O1 (centres unmarked) [Compound 45, DLinKC2DMA, reference compound]"
2,7,"CCCCC/C=C\C/C=C\CCCCCCCCC(CCCCCCCC/C=C\C/C=C\CCCCC)OC(=O)CCCN(C)C [Compound 46, MC3, reference compound]"
